Results on two compounds are retold here after patent US20250073354A1, “COMPOSITIONS AND METHODS FOR DELIVERY OF AGENTS TO INNER EAR” (University of Rochester, priority 2021, published 2025).

For data set [1] the following is noted: mouse, in vivo.
Method: Briefly, mice were anesthetized with a mixture of Ketamine/Xylazine (100 mg/kg, 10 mg/kg, respectively), after depth of anesthesia was confirmed by the cessation of reflexes, the incision area was properly shaved and sterilized with the aid of ethanol 70% swabs (Vitrex Medical A/S Herlev, DK), followed by iodine solution (Povidone Iodine 7,5% Henry Schein, Melville, NY, USA) applicated using cotton swabs. Before the onset of surgery, analgesics were applied, Lidocaine (0.05 ml, 0.2 mg/ml) was applied in the incision site and Buprenorphine (0.05 mg/kg) injected subcutaneously for post-surgical analgesia. After performing the skin incision around the occipital crest, the neck muscles were separated to reveal the CM underneath. […]
Immediately after the CM cannulation procedure, animals were moved to MRI scanner and head movement during scanning was minimized by restraining the animals on an MR-compatible stereotactic holder with ear bars. Body temperature was maintained at 37±0.5° C. with a thermostatically controlled waterbed and monitored, along with the respiratory rate by an MR compatible remote monitoring system (SA Instruments, NY, USA). […] Every 3D-CISS image was calculated as a maximum intensity projection from 4 realigned 3D-TrueFISP volumes with 4 orthogonal phase encoding directions (TR/TE 3.9/1.95 ms, Nex 2, FA 50°, FOV 19.2×12.8×12.8 mm, Matrix 192×128×128, BW 150 kHz). […]
Both DCE-MRI and CT time series data were motion corrected using Advanced Normalization Tools (ANTs ver.2.1.0) (Avants et al., 2008; Avants et al., 2011). Motion corrected time series in MRI images were converted into percent change from baseline-time series, calculated as the percent signal change from the averaged signal of baseline images.
Data set [2] in a line: CT time series of CSF tracer transport to the cochlea after intracisternal infusion. The data set is classed as in vivo, mouse. Here is the method: During the CM cannulation procedure a custom-made head bar was fixed on the top of the animal skull. The head bar was designed to minimize undesired movements during the image acquisition (Yoshida et al., 2016), and fixed to an animal holder. […] Animal's respiration was monitored by using Biovet software. CT scans were performed with the Vector4CT system (MILabs, Utrecht, Netherlands) and scanning of the entire mouse head was performed in 4.56 min at an isotropic spatial resolution of 20 μm. The time series CT scanning protocol comprised one baseline scan (4.5 min) followed by intracisternal infusion of Omnipaque (350 mg I/ml, 1 μL/min, 10 μL, GE healthcare). Scans continued over 6 measurements (30 min) after intracisternal infusion of Omnipaque.
The time-intensity data was extracted using ITK snap with the ROIs described above after background subtraction and then normalized to maximal cisterna magna intensity. Dimensions of cochlear aqueduct were measured using the #X feature in ITK snap for #four animals. Distances between ROIs were calculated using their spatial coordinates.
To solve the equation (#ref), inventors implemented a simple finite difference scheme in Python (#ref) using NumPy and Scipy (#ref). Estimation of the dispersion coefficient was achieved by minimizing the L2-norm prediction error, using Scipy (#ref) E: […]

“Also recorded” adds a separate entry of the source.

Turning to `O=C([O-])CN1CCN(CC(=O)[O-])CCN([C@H](CO)[C@H](O)CO)CCN(CC(=O)[O-])CC1.[Gd+3]` (racemic) [Gadovist, gadobutrol], in data set [1], the “Time activity curves for tracer influx in mice lacking aqp4” value is reported as “did not differ from wild type animals”, the “Time to reach 50 max” value was “significantly higher in the cochlea” and the “Tracer distribution to cochlea” value was “reaches the cochlea”.

On to `CC(=O)N(CC(O)CO)c1c(I)c(C(=O)NCC(O)CO)c(I)c(C(=O)NCC(O)CO)c1I` (centres unmarked) [Omnipaque], for which the “Tracer concentration in scala vestibuli or cochlear nerve” value in data set [2] (during the 30 min of scanning) is recorded as “No clear rise; also recorded: no significant tracer arrives”. In data set [2] (intracisternal delivery, continuous CT scanning), the “Tracer distribution to scala tympani” value is “reaches the base and middle region of the scala tympani”.
